# In patent US12077503B2, “Substituted cyclic amides and their use as herbicides” (FMC CORPORATION, priority 2015, dated 2024):
# Legend:
# Type in all cases: in vivo
# [1] = system: barnyardgrass (Echinochloa crus-galli); assay: Test G Post-Emergence Protocol; settings: Echinochloa crus-galli, post-emergence, 312 h; for pest or weed control at 15.625 g/ha: 15.625 g ai/ha, evaluated after 13 days (100=total damage to plant; 0=no damage to plant), read-out: Barnyardgrass damage rating; for pest or weed control at 62.5 g/ha: 62.5 g ai/ha, read-out: Barnyardgrass damage rating (100=total damage to plant; 0=no damage to plant); for pest or weed control at 62.5 g/ha / pest or weed control at 250 g/ha: evaluated after 13 days; for pest or weed control at 250 g/ha: 250 g ai/ha, read-out: damage to plant, Barnyardgrass (100=total damage to plant; 0=no damage to plant)
# In short: (§1)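 Post-emergence herbicidal damage, scored visually 0–100 at 13 days. Application at 15.625, 62.5 or 250 g/ha onto 8-day-old plants grown under glasshouse control.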
# [2] = system: redroot pigweed (Amaranthus retroflexus); assay: Test G Post-Emergence Protocol; settings: Amaranthus retroflexus, post-emergence, 312 h; for pest or weed control at 15.625 g/ha: 15.625 g ai/ha, evaluated after 13 days (100=total damage to plant; 0=no damage to plant), read-out: Pigweed, Redroot damage rating; for pest or weed control at 62.5 g/ha: 62.5 g ai/ha, read-out: Pigweed, Redroot damage rating (100=total damage to plant; 0=no damage to plant); for pest or weed control at 62.5 g/ha / pest or weed control at 250 g/ha: evaluated after 13 days; for pest or weed control at 250 g/ha: 250 g ai/ha, read-out: damage to plant, Pigweed, Redroot (100=total damage to plant; 0=no damage to plant)
# In short: as §1
# [3] = system: giant foxtail (Setaria faberi); assay: Test G Post-Emergence Protocol; settings: Setaria faberi, post-emergence, 312 h; for pest or weed control at 15.625 g/ha: 15.625 g ai/ha, evaluated after 13 days (100=total damage to plant; 0=no damage to plant), read-out: Foxtail, Giant damage rating; for pest or weed control at 62.5 g/ha: 62.5 g ai/ha, read-out: Foxtail, Giant damage rating (100=total damage to plant; 0=no damage to plant); for pest or weed control at 62.5 g/ha / pest or weed control at 250 g/ha: evaluated after 13 days; for pest or weed control at 250 g/ha: 250 g ai/ha, read-out: damage to plant, Foxtail, Giant (100=total damage to plant; 0=no damage to plant)
# In short: as §1
# corn (Zea mays) [4] = assay: Test G Post-Emergence Protocol; settings: Zea mays, post-emergence, 312 h; for plant injury at 15.625 g/ha: 15.625 g ai/ha, evaluated after 13 days (100=total damage to plant; 0=no damage to plant), read-out: Corn damage rating; for plant injury at 62.5 g/ha: 62.5 g ai/ha, read-out: Corn damage rating (100=total damage to plant; 0=no damage to plant); for plant injury at 62.5 g/ha / plant injury at 250 g/ha: evaluated after 13 days; for plant injury at 250 g/ha: 250 g ai/ha, read-out: damage to plant, Corn (100=total damage to plant; 0=no damage to plant)
# In short: as §1
# [5] = system: ivy-leaved morning glory (Ipomoea hederacea); assay: Test G Post-Emergence Protocol; settings: Ipomoea, post-emergence, 312 h; for pest or weed control at 15.625 g/ha: 15.625 g ai/ha, evaluated after 13 days (100=total damage to plant; 0=no damage to plant), read-out: Morningglory, Ivy-leaved damage rating; for pest or weed control at 62.5 g/ha: 62.5 g ai/ha, read-out: Morningglory, Ivy-leaved damage rating (100=total damage to plant; 0=no damage to plant); for pest or weed control at 62.5 g/ha / pest or weed control at 250 g/ha: evaluated after 13 days; for pest or weed control at 250 g/ha: 250 g ai/ha, read-out: damage to plant, Morningglory, Ivy-leaved (100=total damage to plant; 0=no damage to plant)
# In short: as §1
# [6] = system: velvetleaf (Abutilon theophrasti); assay: Test G Post-Emergence Protocol; settings: Abutilon theophrasti, post-emergence, 312 h; for pest or weed control at 15.625 g/ha: 15.625 g ai/ha, evaluated after 13 days (100=total damage to plant; 0=no damage to plant), read-out: Velvetleaf damage rating; for pest or weed control at 62.5 g/ha: 62.5 g ai/ha, read-out: Velvetleaf damage rating (100=total damage to plant; 0=no damage to plant); for pest or weed control at 62.5 g/ha / pest or weed control at 250 g/ha: evaluated after 13 days; for pest or weed control at 250 g/ha: 250 g ai/ha, read-out: damage to plant, Velvetleaf (100=total damage to plant; 0=no damage to plant)
# In short: as §1
# [7] = system: barnyardgrass (Echinochloa crus-galli); assay: Test G Pre-Emergence Protocol; settings: Echinochloa crus-galli, pre-emergence, 312 h, evaluated after 13 days; for pest or weed control at 15.625 g/ha: 15.625 g ai/ha, read-out: Barnyard grass damage rating (100=total damage to plant; 0=no damage to plant); for pest or weed control at 62.5 g/ha: 62.5 g ai/ha, 100=total damage to plant, 0=no damage to plant, read-out: plant damage rating, Barnyardgrass; for pest or weed control at 250 g/ha: 250 g ai/ha, read-out: Barnyardgrass damage rating (100=total damage to plant; 0=no damage to plant)
# In short: (§2)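 Glasshouse pre-emergence test: soil-sown seeds, sprayed after 1 d at 15.625, 62.5 or 250 g/ha. Conditions 24/16° C day/night, 14 h light, 65% humidity, watering twice daily. Rating 13 d post-spray (100 = total damage).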
# [8] = system: redroot pigweed (Amaranthus retroflexus); assay: Test G Pre-Emergence Protocol; settings: Amaranthus retroflexus, pre-emergence, 312 h, evaluated after 13 days; for pest or weed control at 15.625 g/ha: 15.625 g ai/ha; for pest or weed control at 15.625 g/ha / pest or weed control at 250 g/ha: read-out: Pigweed, Redroot damage rating (100=total damage to plant; 0=no damage to plant); for pest or weed control at 62.5 g/ha: 62.5 g ai/ha, 100=total damage to plant, 0=no damage to plant, read-out: plant damage rating, Pigweed, Redroot; for pest or weed control at 250 g/ha: 250 g ai/ha
# In short: as §2
# [9] = system: giant foxtail (Setaria faberi); assay: Test G Pre-Emergence Protocol; settings: Setaria faberi, pre-emergence, 312 h, evaluated after 13 days; for pest or weed control at 15.625 g/ha: 15.625 g ai/ha; for pest or weed control at 15.625 g/ha / pest or weed control at 250 g/ha: read-out: Foxtail, Giant damage rating (100=total damage to plant; 0=no damage to plant); for pest or weed control at 62.5 g/ha: 62.5 g ai/ha, 100=total damage to plant, 0=no damage to plant, read-out: plant damage rating, Foxtail, Giant; for pest or weed control at 250 g/ha: 250 g ai/ha
# In short: as §2
# corn (Zea mays) [10] = assay: Test G Pre-Emergence Protocol; settings: Zea mays, pre-emergence, 312 h, evaluated after 13 days; for plant injury at 15.625 g/ha: 15.625 g ai/ha; for plant injury at 15.625 g/ha / plant injury at 250 g/ha: read-out: Corn damage rating (100=total damage to plant; 0=no damage to plant); for plant injury at 62.5 g/ha: 62.5 g ai/ha, 100=total damage to plant, 0=no damage to plant, read-out: plant damage rating, Corn; for plant injury at 250 g/ha: 250 g ai/ha
# In short: as §2
# [11] = system: ivy-leaved morning glory (Ipomoea hederacea); assay: Test G Pre-Emergence Protocol; settings: Ipomoea, pre-emergence, 312 h, evaluated after 13 days; for pest or weed control at 15.625 g/ha: 15.625 g ai/ha, read-out: Morning-glory, Ivy-leaved damage rating (100=total damage to plant; 0=no damage to plant); for pest or weed control at 62.5 g/ha: 62.5 g ai/ha, 100=total damage to plant, 0=no damage to plant, read-out: plant damage rating, Morningglory, Ivy-leaved; for pest or weed control at 250 g/ha: 250 g ai/ha, read-out: Morningglory, Ivy-leaved damage rating (100=total damage to plant; 0=no damage to plant)
# In short: as §2
# [12] = system: velvetleaf (Abutilon theophrasti); assay: Test G Pre-Emergence Protocol; settings: Abutilon theophrasti, pre-emergence, 312 h, evaluated after 13 days; for pest or weed control at 15.625 g/ha: 15.625 g ai/ha; for pest or weed control at 15.625 g/ha / pest or weed control at 250 g/ha: read-out: Velvetleaf damage rating (100=total damage to plant; 0=no damage to plant); for pest or weed control at 62.5 g/ha: 62.5 g ai/ha, 100=total damage to plant, 0=no damage to plant, read-out: plant damage rating, Velvetleaf; for pest or weed control at 250 g/ha: 250 g ai/ha
# In short: as §2
compound,measurement,setting,value
Cc1nonc1NC(=O)[C@@H]1C(=O)N(C)C[C@H]1c1ccc(C(F)(F)F)cc1 (racemic) [Compound 1597],pest or weed control at 15.625 g/ha,[1],0%
same,pest or weed control at 62.5 g/ha,[1],0%
same,pest or weed control at 250 g/ha,[1],0%
same,pest or weed control at 15.625 g/ha,[2],0%
same,pest or weed control at 62.5 g/ha,[2],0%
same,pest or weed control at 250 g/ha,[2],0%
same,pest or weed control at 15.625 g/ha,[3],0%
same,pest or weed control at 62.5 g/ha,[3],0%
same,pest or weed control at 250 g/ha,[3],0%
same,plant injury at 15.625 g/ha,corn (Zea mays) [4],0%
same,plant injury at 62.5 g/ha,corn (Zea mays) [4],0%
same,plant injury at 250 g/ha,corn (Zea mays) [4],0%
same,pest or weed control at 15.625 g/ha,[5],0%
same,pest or weed control at 62.5 g/ha,[5],0%
same,pest or weed control at 250 g/ha,[5],0%
same,pest or weed control at 15.625 g/ha,[6],0%
same,pest or weed control at 62.5 g/ha,[6],0%
same,pest or weed control at 250 g/ha,[6],0%
same,pest or weed control at 15.625 g/ha,[7],0%
same,pest or weed control at 62.5 g/ha,[7],0%
same,pest or weed control at 250 g/ha,[7],0%
same,pest or weed control at 15.625 g/ha,[8],0%
same,pest or weed control at 62.5 g/ha,[8],0%
same,pest or weed control at 250 g/ha,[8],0%
same,pest or weed control at 15.625 g/ha,[9],0%
same,pest or weed control at 62.5 g/ha,[9],0%
same,pest or weed control at 250 g/ha,[9],0%
same,plant injury at 15.625 g/ha,corn (Zea mays) [10],0%
same,plant injury at 62.5 g/ha,corn (Zea mays) [10],0%
same,plant injury at 250 g/ha,corn (Zea mays) [10],0%
same,pest or weed control at 15.625 g/ha,[11],0%
same,pest or weed control at 62.5 g/ha,[11],0%
same,pest or weed control at 250 g/ha,[11],0%
same,pest or weed control at 15.625 g/ha,[12],0%
same,pest or weed control at 62.5 g/ha,[12],0%
same,pest or weed control at 250 g/ha,[12],0%
CN1C[C@@H](c2ccc(C(F)(F)F)cc2)[C@H](C(=O)Nc2ccccc2Cl)C1=O (racemic) [Compound 1598],pest or weed control at 15.625 g/ha,[1],30%
same,pest or weed control at 62.5 g/ha,[1],80%
same,pest or weed control at 250 g/ha,[1],70%
same,pest or weed control at 15.625 g/ha,[2],30%
same,pest or weed control at 62.5 g/ha,[2],50%
same,pest or weed control at 250 g/ha,[2],70%
same,pest or weed control at 15.625 g/ha,[3],80%
same,pest or weed control at 62.5 g/ha,[3],80%
same,pest or weed control at 250 g/ha,[3],80%
same,plant injury at 15.625 g/ha,corn (Zea mays) [4],0%
same,plant injury at 62.5 g/ha,corn (Zea mays) [4],40%
same,plant injury at 250 g/ha,corn (Zea mays) [4],60%
same,pest or weed control at 15.625 g/ha,[5],30%
same,pest or weed control at 62.5 g/ha,[5],60%
same,pest or weed control at 250 g/ha,[5],70%
same,pest or weed control at 15.625 g/ha,[6],0%
same,pest or weed control at 62.5 g/ha,[6],20%
same,pest or weed control at 250 g/ha,[6],50%
same,pest or weed control at 15.625 g/ha,[7],0%
same,pest or weed control at 62.5 g/ha,[7],70%
same,pest or weed control at 250 g/ha,[7],80%
same,pest or weed control at 15.625 g/ha,[8],10%
same,pest or weed control at 62.5 g/ha,[8],40%
same,pest or weed control at 250 g/ha,[8],50%
same,pest or weed control at 15.625 g/ha,[9],60%
same,pest or weed control at 62.5 g/ha,[9],80%
same,pest or weed control at 250 g/ha,[9],90%
same,plant injury at 15.625 g/ha,corn (Zea mays) [10],0%
same,plant injury at 62.5 g/ha,corn (Zea mays) [10],10%
same,plant injury at 250 g/ha,corn (Zea mays) [10],70%
same,pest or weed control at 15.625 g/ha,[11],10%
same,pest or weed control at 62.5 g/ha,[11],20%
same,pest or weed control at 250 g/ha,[11],40%
same,pest or weed control at 15.625 g/ha,[12],0%
same,pest or weed control at 62.5 g/ha,[12],10%
same,pest or weed control at 250 g/ha,[12],60%
